Results as given in PubChem BioAssay (NCI).
Where “and” joins values, the source holds several entries; their conditions need not be identical. Identical values can stand only once.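 Method: 48-hour compound exposure of cells in 96-well plates, five concentrations, linear interpolation of endpoints. The concentration for 50% growth inhibition is given as GI50. TGI: total growth inhibition.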

Test system: P388 leukemia
Test: NCI tumour cell line growth inhibition, 48 h

N[C@@H](Cc1ccc(N(CCCl)CCCl)cc1)C(=O)O
GI50: 1.79 µM
TGI: 35.9 µM and 42.9 µM

COc1nc(C(Cl)(Cl)Cl)c(Cl)c(OC)c1Cl
TGI: 43 µM
